Here are results for one compound from US6444703B1, “Cyclohexane carbocyclic ester derivative and cyclodextrin complex and composition for treatment of helicobacter pylori infections” (Teikoku Chemical Industries Co., Ltd., priority 1995, dated 2002).

Structures are written as SMILES. Several values for one entry are separate records, joined by “and”; a condition that tells them apart may be missing. Identical values can stand only once. Like-named read-outs stand apart in the source and are kept apart here.

The nature of data set [1]: Solubility measurement (excess added to solvent, shaken one hour, supernatant assayed). It is filed as physicochemical. Conditions: thermodynamic from solid, 25° C. The protocol: Incidentally, the method for measuring the solubility in each example is as follows. Thus, an excessive amount of the present compound was added to a certain amount of solvent, the mixture was shaken for one hour, the supernatant liquid was removed and the amount of the present compound contained therein was measured wherefrom the solubility was calculated.

The subject of data set [2] is Helicobacter pylori ATCC 43504. The data set is described as follows: Eradication of Helicobacter pylori in stomach of infected Mongolian gerbils (viable cell counting). It is filed as in vivo. Conditions: oral 10 ml/kg three times on the 11th day, stomach viable cells 20 hours after final administration, individual animals 1-3, versus control 3.7 × 10^4 CFU/stomach, hydrochloride. The protocol: Helicobacter pylori ATCC 43504 (100 μl) was inoculated into Brain heart infusion broth containing 10% calf serum and incubated at 37° C. for 24 hours in a microaerophilic atmosphere. The culture broth (0.5 ml containing about 3×10^8 CFU/ml) was administered orally to Mongolian gerbils (MON/Jms/Gba Slc; male of six weeks age) after fasting for 24 hours, then neither feed nor water was given for four hours and, after that, the animals were given with feed and water for ten days. Three infected animals as prepared in (1) were used per group. They were fasted from 20 hours before the 11th day (although water was made freely taken by them) and, during the fasted stage, 10 ml/kg each of the test drugs for administration prepared in Examples and Comparative Examples were orally given to them at 9:00, 13:00 and 17:00 o'clock on the 11th day. Feeding was started as from 21:00 o'clock and, after 20 hours from the final administration, stomach of the animals was removed and Helicobacter pylori living therein was subjected to a viable cell counting. The stomachs were cut open and the contents were removed (no washing conducted) and homogenized in 20 ml of 0.1M phosphate buffer (pH 7.2) to give a sample for viable cell counting. […] The growing colonies were counted after 6 days. […] Incidentally, the eradication rate was calculated according to the following calculating expression. […]

On to `Cc1ccc(COC(=O)c2ccc(-c3ccc(OC(=O)[C@H]4CC[C@H](CNC(=N)N)CC4)cc3)cc2)cc1.Cl` [Comp.Ex.1, 4-[4-(4-Methylbenzyloxycarbonyl)phenyl]phenyl trans-4-guanidinomethylcyclohexanecarboxylate hydrochloride], for which the solubility at 1 h is under 0.1 µg/mL in data set [1] (0.05M phosphate buffer, aqueous buffer, pH 6.5, read-out: Solubility in 0.05M phosphate buffer (pH 6.5)); under 0.1 µg/mL in data set [1] (0.1M acetate buffer, aqueous buffer, pH 4.0, read-out: Solubility in 0.1M acetate buffer (pH 4.0)); under 0.1 µg/mL in data set [1] (first fluid (The Japanese Pharmacopoeia), simulated gastric fluid, pH 1.2, read-out: Solubility in the first fluid (The Japanese Pharmacopoeia) (pH 1.2)); 24 µg/mL in data set [1] (water, read-out: Solubility in water). Further, the “Eradication Rate (%)” value in data set [2] was 95.7% and 62.2% and 0%.
